Measurements reported in patent US9078915B2, “Prostate carcinogenesis predictor” (University of South Florida, priority 2007, dated 2015).

Experiments:
PKC-ι = target: T1, PKC-ι (Homo sapiens, UniProt P41743); assay: Kinase assay: phosphorylation of IKKα/β by immunoprecipitated PKC-ι from DU-145 cells; assay type: biochemical; settings: ICA-1 100 nM, co-immunoprecipitated PKC-ι and IKKα/β
T1 construct: Cell lysates (50 μg) of an exponentially growing DU-145 cells were immunoprecipitated with either rabbit polyclonal PKC-ι antibody; endogenous in cells; host or cells: DU-145 (whole cell lysate, immunoprecipitate on anti-rabbit IgG-agarose beads)
T1 sequence (P41743 1-596): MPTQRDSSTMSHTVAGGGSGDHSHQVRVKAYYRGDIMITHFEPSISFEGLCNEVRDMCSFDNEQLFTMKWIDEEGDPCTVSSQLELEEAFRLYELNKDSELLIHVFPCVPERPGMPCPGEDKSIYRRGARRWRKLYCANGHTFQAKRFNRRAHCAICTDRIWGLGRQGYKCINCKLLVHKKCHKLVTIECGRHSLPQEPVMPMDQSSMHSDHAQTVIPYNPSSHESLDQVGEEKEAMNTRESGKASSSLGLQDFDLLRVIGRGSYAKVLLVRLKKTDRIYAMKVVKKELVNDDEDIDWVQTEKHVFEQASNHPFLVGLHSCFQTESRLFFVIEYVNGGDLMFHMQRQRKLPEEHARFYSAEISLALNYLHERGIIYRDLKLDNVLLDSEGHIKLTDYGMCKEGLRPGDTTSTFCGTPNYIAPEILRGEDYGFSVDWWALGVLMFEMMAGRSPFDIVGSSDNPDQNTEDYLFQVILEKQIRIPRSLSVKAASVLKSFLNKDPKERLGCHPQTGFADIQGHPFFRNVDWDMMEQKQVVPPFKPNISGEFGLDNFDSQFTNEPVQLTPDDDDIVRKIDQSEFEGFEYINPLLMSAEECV
Experimental: DU-145 cells (3.75×10^5) were grown as a monolayer in T75 flasks overnight. Whole cell lysates of (100 μg) were immunoprecipitated as follows: cell lystaes (50 μg) were pre-cleared for 30 min at 4° C. with anti-rabbit IgG-agarose beads (1:1 v/v, 10 μl) (catalog number A8914; Sigma Aldrich) and incubated with 5 μg of PKC-ι rabbit polyclonal antibody and/or IKKα/β rabbit polyclonal antibody (5 μg) overnight at 4° C. and then a further 1 h with anti-rabbit IgG-agarose beads (1:1 v/v, 50 μl). The immunoprecipitated samples were incubated with kinase buffer (50 μl of 3.03 mg/10 ml ATP, 30 mM of Tris p.H 7.4, 50 μl of 5 μg phosphotidylserine) at 30° C. in a water bath for 5 minutes. The reaction was terminated by placing the samples in ice. The PKC-ι inhibitor 1H-imidazole-4-carboxamide, 5-amino-1-[2,3-dihydroxy-4-[(phosphonooxy)methyl]cyclopentyl]-, [1R-(1a, 2b, 3b, 4a)] (ICA-1; 100 nM) was synthesized by Southern Research Institute (Birmingham, Ala.). […]
(§1) Cell lysates (50 μg) of an exponentially growing DU-145 cells were immunoprecipitated with either rabbit polyclonal PKC-ι antibody and/or IKKα/β rabbit polyclonal antibody. […] After incubation for 24-72 hours with ICA-1 (0.1 μM-60 μM), both the control cells and ICA-1 treated cells were trypsinized and viable cells were counted using trypan blue exclusion assay and a hematocytometry. […]

LNCaP cells = assay: Cell viability, trypan blue exclusion assay, LNCaP; assay type: cell-based, human
Experimental: (§2) The siRNAs complexes were made according to the following procedures: 60 μl of siRNAs (10 μM stock solution) were combined with 60 μl of tranfection reagent and incubated at room temperature for 30 minutes to make the siRNA complex. The siRNA complex was then added to twenty four hours post plated cells giving a final concentration of 50 nM of siRNA complex in complete media. The cells were incubated with either siRNA-A, or PKC-ι, PKC-ζ, and PKC-δ siRNA (50 nM for RWPE-1, 100 nM for LNCaP and 150 nM for DU-145 respectively). Following treatments, the cells were washed with phosphate buffered saline (PBS), trypsinized and resuspended in 2-3 ml of PBS.
(§3) Cell viability was quantified using trypan blue exclusion assay and the numbers of unstained cells were counted as mentioned above. Three independent experiments were carried out for each treatment with controls. Cell viability was determined relative to vehicle control using the mean and SD for each time point. Statistical determination by Student's T test using Minitab program (Minitab Inc. State College, Pa.).
(§4) Subconfluent RWPE-1 (A), LNCaP (B) and DU-145 (C) cells (2.5×10^5) were treated with PKC-ι siRNA (50 nM for RWPE-1, 100 nM for LNCaP and 150 nM for DU-145) complex from 24-72 h as described in “Materials and Methods.” At the indicated time, the viable cells were counted using trypan blue exclusion assay and a hematocyometry. Three independent experiments were performed and the mean of the viable cells and SD were plotted. After titrating PKC-ι siRNA concentrations from 50-100 nM, we used an optimal concentration of PKC-ι siRNA (50 nM) and control siRNA to suppress PKC-ι expression. […]
as §1

DU-145 cells = assay: Cell viability, trypan blue exclusion assay, DU-145; assay type: cell-based, human
Experimental: as §2, §3, §4, §1

## NC(=O)c1ncn(C2CC(COP(=O)(O)O)C(O)C2O)c1N (stereo not drawn) [ICA-1, 1H-imidazole-4-carboxamide, 5-amino-1-[2,3-dihydroxy-4-[(phosphonooxy)methyl]cyclopentyl]-, [1R-(1a, 2b, 3b, 4a)]]
PKC-ι
  phosphorylation of IKKα/β (Ser176/180) by PKC-ι: inhibited
LNCaP cells; ICA-1 0.1 μM-60 μM, 24-72 hours
  inhibition of cell proliferation: does not significantly (p>0.05 for both cell lines) inhibit
LNCaP cells; ICA-1 0.1-0.5 μM
  cell numbers at low concentration: increase in cell numbers
LNCaP cells; ICA-1 10-60 μM
  cell growth at high concentration: inhibition of cell growth
DU-145 cells; DU-145, ICA-1 0.1 μM-60 μM, 24-72 hours
  inhibition of cell proliferation: does not significantly (p>0.05 for both cell lines) inhibit
DU-145 cells; DU-145, ICA-1 0.1-0.5 μM
  cell numbers at low concentration: increase in cell numbers
DU-145 cells; DU-145, ICA-1 10-60 μM
  cell growth at high concentration: inhibition of cell growth
